# Measurements reported in US6376521B1, “A3 adenosine receptor antagonists” (The United States of America as represented by the …, priority 1998, dated 2002).
# Read-outs that look alike come from different tables or passages of the source.
# Tests used:
# rat A3 receptors = target: T1, rat A3 receptors (Rattus norvegicus, UniProt P28647); test: Displacement of specific [125I]AB-MECA binding at rat A3 receptors stably expressed in CHO cells; settings: for rA3/hA3: ratio of affinities at rat vs. human A3 receptors; for rA1/rA3: ratio of affinities rat A1 vs rat A3
# T1 construct: expressed in transfected cells
# T1 sequence (P28647 1-320): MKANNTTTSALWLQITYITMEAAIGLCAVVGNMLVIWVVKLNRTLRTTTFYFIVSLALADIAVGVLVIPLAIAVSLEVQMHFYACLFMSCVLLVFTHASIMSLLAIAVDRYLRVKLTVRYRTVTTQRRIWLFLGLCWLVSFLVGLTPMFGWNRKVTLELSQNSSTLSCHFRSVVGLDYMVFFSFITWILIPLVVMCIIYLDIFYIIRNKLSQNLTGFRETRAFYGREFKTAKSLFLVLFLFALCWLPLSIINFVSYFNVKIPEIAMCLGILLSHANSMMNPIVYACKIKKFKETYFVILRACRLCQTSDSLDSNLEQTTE
# A2A adenosine receptors = target: T2, A2A adenosine receptors (Rattus norvegicus, UniProt P30543); test: Displacement of specific [3H]CGS 21680 binding in rat striatal membranes; settings: for rA2A displacement of specific binding (class d) / inhibition at 100 µM: at 10^−4 M; for Ki: [3H]CGS 21680, rat striatal membranes, n = 3-6, read-out: rA2A Ki ± S.E.M.; for inhibition at 100 µM: read-out: rA2A % inhibition (percentage of specific binding displaced)
# T2 construct: from tissue
# A1 adenosine receptors = target: T3, A1 adenosine receptors (Rattus norvegicus, UniProt P25099); test: Displacement of specific [3H]R-PIA binding in rat brain membranes; settings: for Ki: [3H]R-PIA, rat brain membranes, n = 3-5, read-out: rA1 Ki ± S.E.M.; for inhibition at 100 µM: read-out: rA1 % inhibition (percentage of specific binding displaced)
# T3 construct: from tissue
# T3 sequence (P25099 1-326): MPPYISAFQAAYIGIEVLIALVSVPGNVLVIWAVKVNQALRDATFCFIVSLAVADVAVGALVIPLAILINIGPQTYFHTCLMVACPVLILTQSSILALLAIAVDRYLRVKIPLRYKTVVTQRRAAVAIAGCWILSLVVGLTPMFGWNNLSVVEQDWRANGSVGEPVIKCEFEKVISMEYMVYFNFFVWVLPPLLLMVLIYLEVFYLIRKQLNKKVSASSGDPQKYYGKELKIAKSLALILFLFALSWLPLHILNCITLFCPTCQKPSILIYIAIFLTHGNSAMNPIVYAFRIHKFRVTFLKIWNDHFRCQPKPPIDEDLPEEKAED
# human A3 receptors = target: T4, human A3 receptors (Homo sapiens, UniProt P0DMS8); test: Displacement of specific [125I]AB-MECA binding at human A3 receptors expressed in HEK cells, in membranes; settings: for Ki: [125I]AB-MECA, HEK cell membranes, n = 3-4, read-out: hA3 Ki ± S.E.M.; for rA1/hA3: ratio of affinities rat A1 vs human A3
# T4 construct: expressed in transfected cells
# T4 sequence (P0DMS8 1-318): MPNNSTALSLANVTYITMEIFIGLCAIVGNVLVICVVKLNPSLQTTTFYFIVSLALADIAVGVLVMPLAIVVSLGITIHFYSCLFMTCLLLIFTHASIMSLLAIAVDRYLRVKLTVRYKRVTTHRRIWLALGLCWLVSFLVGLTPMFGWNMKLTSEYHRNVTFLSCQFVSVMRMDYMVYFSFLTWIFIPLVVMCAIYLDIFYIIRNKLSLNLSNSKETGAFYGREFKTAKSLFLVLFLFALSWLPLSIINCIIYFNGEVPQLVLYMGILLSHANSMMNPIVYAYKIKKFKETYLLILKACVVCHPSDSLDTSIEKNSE
# [1] = Table 4, [125I]AB-MECA, CHO cells, n = 3-5, read-out: rA3 Ki
# T2 sequence (P30543 whole entry): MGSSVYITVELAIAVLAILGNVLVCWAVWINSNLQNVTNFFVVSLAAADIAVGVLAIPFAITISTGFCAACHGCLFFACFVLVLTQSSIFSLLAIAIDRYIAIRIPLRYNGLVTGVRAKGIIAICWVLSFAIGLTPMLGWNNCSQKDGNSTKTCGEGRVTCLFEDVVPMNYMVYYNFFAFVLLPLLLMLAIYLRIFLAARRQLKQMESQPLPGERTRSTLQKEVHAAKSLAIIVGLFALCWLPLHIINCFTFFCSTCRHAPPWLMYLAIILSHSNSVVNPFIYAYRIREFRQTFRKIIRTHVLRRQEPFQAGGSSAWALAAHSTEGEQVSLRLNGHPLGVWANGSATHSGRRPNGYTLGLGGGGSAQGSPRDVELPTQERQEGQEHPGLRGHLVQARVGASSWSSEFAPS
Structure (SMILES),Ki (rat A3 receptors; [1]),rA3/hA3 (rat A3 receptors; Table 4),rA1/rA3 (rat A3 receptors; Table 4),"Ki (A1 adenosine receptors; Table 2, compounds 33-58)","Ki (human A3 receptors; Table 2, compounds 33-58)",rA1/hA3 (human A3 receptors; Table 2),"Ki (A2A adenosine receptors; Table 2, compounds 33-58)",other results
"CCCCc1nc(-c2ccccc2)c(C(=O)OCC)c(CC)c1C(=O)SCC [Compound 57, 5-Ethyl 2-butyl-4-ethyl-3-(ethylsulfanylcarbonyl)-6-phenylpyridine-5-carboxylate]",2.26 ± 0.05 µM,64,18,40.3 ± 7.4 µM,0.035 ± 0.0091 µM,1200,–,rA2A displacement of specific binding (class d) (A2A adenosine receptors; Table 2): d (10^−4) (Displacement of <10% of specific binding at the indicated concentration (M).)
"CCOC(=O)c1c(-c2cccc(Cl)c2)nc(CC)c(C(=O)SCC)c1CC [Compound 51, 5-Ethyl 2,4-diethyl-3-(ethylsulfanylcarbonyl)-6-(m-chlorophenyl)pyridine-5-carboxylate]",0.44 ± 0.033 µM,33,19,8.2 ± 2.96 µM,0.0134 ± 0.0015 µM,610,8.91 ± 0.97 µM,–
"CCCc1c(C(=O)SCC)c(C)nc(-c2ccccc2)c1C(=O)OCC [Compound 38, 5-Ethyl-2-methyl-4-propyl-3-(ethylsulfanylcarbonyl)-6-phenylpyridine-5-carboxylate]",0.65 ± 0.07 µM,3.4,>100,–,0.194 ± 0.051 µM,>700,7.53 ± 2.7 µM,"rA1 percentage of specific binding displaced (A1 adenosine receptors; Table 2, at 10^−4 M): 29 ± 6% (10^−4)"
"CCOC(=O)c1c(-c2ccccc2)nc(C)c(C(=O)SCC)c1CC [Compound 36, 5-Ethyl 2-methyl-4-ethyl-3-(ethylsulfanylcarbonyl)-6-phenylpyridine-5-carboxylate]",1.47 ± 0.34 µM,34,10,14.8 ± 3.5 µM,0.0429 ± 0.0088 µM,340,14.9 ± 4.1 µM,–
"CCCC1C(C(=O)SCC)=C(C)NC(c2ccccc2)=C1C(=O)OCC (racemic) [Compound 64, 5-Ethyl 2-methyl-4-propyl-6-phenyl-3-(ethylsulfanylcarbonyl)-1,4-(±)-dihydropyridine-5-carboxylate]",3.1 ± 0.78 µM,–,–,–,–,–,–,"inhibition at 100 µM (A2A adenosine receptors; Table 3): 29 ± 10%; inhibition at 100 µM (A1 adenosine receptors; Table 3, at 10^−4 M): 48 ± 5%"
"CCCSC(=O)c1c(CC)nc(-c2ccccc2)c(C(=O)OCC)c1CC [Compound 53, 5-Ethyl 2,4-diethyl-3-propylsulfanylcarbonyl-6-phenylpyridine-5-carboxylate]",0.294 ± 0.006 µM,18,28,8.22 ± 1.21 µM,0.0159 ± 0.0054 µM,520,15.7 ± 4.4 µM,–
"CCCOC(=O)c1c(-c2cccc(Cl)c2)nc(CC)c(C(=O)SCCC)c1CC [Compound 54, 5-Propyl 2,4-diethyl-3-propylsulfanylcarbonyl-6-(m-chlorophenyl)pyridine-5-carboxylate]",–,–,–,41.4 ± 11.9 µM,–,–,24.1 ± 7.9 µM,Ki (rat A3 receptors): 0.814 ± 0.037 µM
"CCCC1=C(C(=O)SCC)C(CC)C(C(=O)OCC)=C(c2ccccc2)N1 (racemic) [Compound 76, 5-Ethyl 2-propyl-4-ethyl-6-phenyl-3-(ethylsulfanylcarbonyl)-1,4-(±)-dihydropyridine-5-carboxylate]",2.73 ± 0.14 µM,1.3,>30,–,–,–,–,"rA2A displacement of specific binding (class d) (A2A adenosine receptors; Table 3): d (10^−4) (Displacement of < 10% of specific binding at the indicated concentration (M).); inhibition at 100 µM (A1 adenosine receptors; Table 3, at 10^−4 M): 26 ± 19%; Ki (human A3 receptors; Table 3): 2.09 ± 0.04 µM; rA1/hA3 (human A3 receptors; Table 3): >20"
"CCOC(=O)C1=C(c2ccccc2)NC(CC)=C(C(=O)SCC)C1CC (racemic) [Compound 75, 5-Ethyl 2,4-diethyl-6-phenyl-3-(ethylsulfanylcarbonyl)-1,4-(±)-dihydropyridine-5-carboxylate]",2.52 ± 0.88 µM,2.8,>30,–,–,–,–,"Ki (A2A adenosine receptors; Table 3): 29.1 ± 9.9 µM; inhibition at 100 µM (A1 adenosine receptors; Table 3, at 10^−4 M): 34 ± 7%; Ki (human A3 receptors; Table 3): 0.907 ± 0.044 µM; rA1/hA3 (human A3 receptors; Table 3): >50"
"CCOC(=O)c1c(-c2ccccc2)nc(CC)c(C(=O)SCC)c1CC [Compound 48, 5-Ethyl 2,4-diethyl-3-(ethylsulfanylcarbonyl)-6-phenylpyridine-5-carboxylate]",0.41 ± 0.048 µM,21,>100,–,0.02 ± 0.0019 µM,>3000,6.13 ± 1.28 µM,"rA1 percentage of specific binding displaced (A1 adenosine receptors; Table 2, at 10^−4 M): 41 ± 6% (10^−4)"
"CCOC(=O)c1c(C2CCCC2)nc(CC)c(C(=O)SCC)c1CC [Compound 52, 5-Ethyl 2,4-diethyl-3-(ethylsulfanylcarbonyl)-6-cyclopentylpyridine-5-carboxylate]",2.8 ± 0.22 µM,0.83,>20,55.3 ± 14.7 µM,4.01 ± 2.49 µM,14,26.1 ± 6.2 µM,–
"CCOC(=O)c1c(-c2ccccc2)nc(CCOC)c(C(=O)SCC)c1CC [Compound 56, 5-Ethyl 2-(2-methoxylethyl)-4-ethyl-3-(ethylsulfanylcarbonyl)-6-phenylpyridine-5-carboxylate]",–,–,–,10.1 ± 2.1 µM,0.0168 ± 0.002 µM,600,12.6 ± 1.7 µM,–
"CCOC(=O)c1c(C)nc(-c2ccccc2)c(C(=O)OCC)c1CC [Compound 35, 3,5-Diethyl 2-methyl-4-ethyl-6-phenylpyridine-3,5-dicarboxylate]",–,–,–,3.36 ± 0.6 µM,0.176 ± 0.038 µM,19,3.69 ± 1.25 µM,–
"CCOC(=O)c1c(C)nc(C2CCCC2)c(C(=O)OCc2ccccc2)c1C#Cc1ccccc1 [Compound 45, 3-Ethyl 5-benzyl 2-methyl-4-phenylethynyl-6-cyclopentylpyridine-3,5-dicarboxylate]",–,–,–,56.2 ± 20.8 µM,3.85 ± 0.79 µM,15,22.9 ± 5 µM,–
"CCOC(=O)C1=C(C)NC(c2ccccc2)=C(C(=O)OCC)C1C=O (racemic) [Compound 67, 3,5-Diethyl 2-methyl-6-phenyl-4-formyl-1,4(±)-dihydropyridine-3,5-dicarboxylate]",–,–,–,–,–,–,–,"inhibition at 100 µM (A2A adenosine receptors; Table 3): 32 ± 15%; inhibition at 100 µM (A1 adenosine receptors; Table 3, at 10^−4 M): 26 ± 6%; Ki (human A3 receptors; Table 3): 15.6 ± 5.4 µM; rA1/hA3 (human A3 receptors; Table 3): >6"
CCCOC(=O)c1c(-c2ccccc2)nc(CC)c(C(=O)SCCOC2CCCCO2)c1CCC (stereo not drawn) [Compound 13],–,–,–,–,–,>20,–,"rA2A displacement of specific binding (class d) (A2A adenosine receptors; Table 2): d (10^−4) (Displacement of <10% of specific binding at the indicated concentration (M).); rA1 percentage of specific binding displaced (A1 adenosine receptors; Table 2, at 10^−4 M): 18 ± 1% (10^−4)"
"CCOC(=O)c1c(C)nc(C2CCC2)c(C(=O)OCc2ccccc2)c1C#Cc1ccccc1 [Compound 44, 3-Ethyl 5-benzyl 2-methyl-4-phenylethynyl-6-cyclobutylpyridine-3,5-dicarboxylate]",–,–,–,–,2.41 ± 0.59 µM,–,27.6 ± 12 µM,"rA1 displacement of specific binding (class d) (A1 adenosine receptors; Table 2, at 10^−4 M): d (10^−4) (Displacement of <10% of specific binding at the indicated concentration (M).)"
"CCOC(=O)c1c(CC)nc(-c2ccccc2)c(C(=O)OCC)c1C [Compound 46, 3,5-Diethyl 2-ethyl-4-methyl-6-phenylpyridine-3,5-dicarboxylate]",–,–,–,10.3 ± 1.7 µM,0.121 ± 0.008 µM,85,13.4 ± 4.2 µM,–
"CCOC(=O)C1=C(c2ccccc2)NC(C)=C(C(=O)SCCOC)C1CC (racemic) [Compound 63, 5-Ethyl 2-methyl-4-ethyl-6-phenyl-3-[(2-methoxy-(ethylsulfanylcarbonyl)]-1,4-(±)-dihydropyridine-5-carboxylate]",–,–,–,–,–,–,–,"Ki (A2A adenosine receptors; Table 3): 12.5 ± 2.5 µM; rA1 % inhibition (percentage of specific binding displaced) (A1 adenosine receptors; Table 3, at 10^−4 M): 36 ± 14%; Ki (human A3 receptors; Table 3): 4.58 ± 0.35 µM; rA1/hA3 (human A3 receptors; Table 3): >10"
"CCOC(=O)C1=C(c2ccccc2)NC(C)=C(C(=O)SCC)C1CC (racemic) [Compound 62, 5-Ethel 2-methyl-4ethyl-6-phenyl-3-(ethylsulfanylcarbonyl)-1,4-(±)-dihydropyridine-5-carboxylate]",4.6 ± 0.38 µM,–,–,–,–,–,–,Ki (A2A adenosine receptors; Table 3): 54.8 ± 18.8 µM; Ki (A1 adenosine receptors; Table 3): 35.4 ± 4.5 µM
